Experimental data as given in patent US5234922A, “Use of sulfonylureas and other potassium channel regulators to treat secretory diarrhea” (University of Iowa Research Foundation, priority 1992, dated 1993).
Counter-ions that a name gives are not always drawn. Like-named read-outs stand apart in the source and are kept apart here.

Biological target: T1, wild-type human CFTR (Homo sapiens, UniProt P13569)
T1 construct: expressed in transfected cells; host or cells: NIH 3T3 fibroblasts (stably infected with a retrovirus)
Assay: Whole-cell patch-clamp recording of cAMP-activated CFTR Cl- currents in NIH 3T3 fibroblasts expressing recombinant CFTR
Type: cell-based
Settings: for effect on baseline currents: before cAMP stimulation, n=3; for inhibition at 1000 µM: 1 mM; for effect on Cl- current previously activated by cAMP agonists: added to the bathing solution after activation; for relative potency of inhibition of CFTR Cl- currents: rank order among K+ channel openers

[1] = NIH3T3, 250 μM, 3 min after adding, currents activated by cAMP agonists
[2] = NIH3T3, 3 min after adding, currents activated by cAMP agonists

T1 sequence (P13569 whole entry): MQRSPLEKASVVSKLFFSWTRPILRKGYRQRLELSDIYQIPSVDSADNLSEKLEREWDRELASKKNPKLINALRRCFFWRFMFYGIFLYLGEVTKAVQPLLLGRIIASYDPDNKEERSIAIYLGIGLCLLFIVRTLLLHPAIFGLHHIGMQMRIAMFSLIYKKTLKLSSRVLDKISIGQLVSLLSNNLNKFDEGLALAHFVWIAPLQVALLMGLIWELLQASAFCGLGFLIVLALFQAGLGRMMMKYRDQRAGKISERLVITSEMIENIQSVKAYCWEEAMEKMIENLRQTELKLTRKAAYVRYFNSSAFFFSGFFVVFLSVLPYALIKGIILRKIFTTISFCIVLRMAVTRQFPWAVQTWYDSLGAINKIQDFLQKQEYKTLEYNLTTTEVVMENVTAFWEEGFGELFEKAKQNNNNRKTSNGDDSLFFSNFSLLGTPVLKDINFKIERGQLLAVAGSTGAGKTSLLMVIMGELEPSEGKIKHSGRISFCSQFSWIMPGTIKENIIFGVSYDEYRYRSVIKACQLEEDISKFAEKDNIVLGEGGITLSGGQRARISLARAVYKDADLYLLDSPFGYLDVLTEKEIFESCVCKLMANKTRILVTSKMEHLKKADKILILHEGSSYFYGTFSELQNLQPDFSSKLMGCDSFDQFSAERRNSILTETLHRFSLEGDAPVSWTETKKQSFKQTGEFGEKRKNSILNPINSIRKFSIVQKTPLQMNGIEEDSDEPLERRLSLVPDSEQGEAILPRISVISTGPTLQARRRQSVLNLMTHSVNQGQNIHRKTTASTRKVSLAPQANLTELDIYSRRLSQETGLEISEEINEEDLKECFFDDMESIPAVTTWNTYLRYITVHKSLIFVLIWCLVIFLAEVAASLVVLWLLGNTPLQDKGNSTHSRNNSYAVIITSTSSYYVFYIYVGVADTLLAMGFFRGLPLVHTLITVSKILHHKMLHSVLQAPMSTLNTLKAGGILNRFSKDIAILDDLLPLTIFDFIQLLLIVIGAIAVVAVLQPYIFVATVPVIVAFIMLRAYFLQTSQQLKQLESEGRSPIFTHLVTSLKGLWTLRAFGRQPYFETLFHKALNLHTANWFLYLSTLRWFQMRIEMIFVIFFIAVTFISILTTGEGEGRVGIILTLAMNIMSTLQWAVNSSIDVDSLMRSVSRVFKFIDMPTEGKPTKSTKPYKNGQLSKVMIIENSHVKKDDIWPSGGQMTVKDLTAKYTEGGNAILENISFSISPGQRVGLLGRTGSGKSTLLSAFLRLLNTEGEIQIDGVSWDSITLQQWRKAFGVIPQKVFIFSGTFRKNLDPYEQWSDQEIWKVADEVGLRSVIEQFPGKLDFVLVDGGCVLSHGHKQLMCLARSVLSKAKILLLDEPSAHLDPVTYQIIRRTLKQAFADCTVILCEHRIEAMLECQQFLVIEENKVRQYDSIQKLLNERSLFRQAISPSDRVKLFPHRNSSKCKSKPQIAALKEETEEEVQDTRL

Structure (SMILES)	inhibition at 250 µM [1] [%]	inhibition at 1000 µM [2] [%]	effect on Cl- current previously activated by cAMP agonists	relative potency of inhibition of CFTR Cl- currents	also measured
CC1=NS(=O)(=O)c2cc(Cl)ccc2N1 [diazoxide]	> 70	> 70	inhibited		effect on baseline currents (100-1,000 μM): no effect
COc1ccc(Cl)cc1C(=O)NCCc1ccc(S(=O)(=O)NC(=O)NC2CCCCC2)cc1 [glibenclamide]					inhibition at 100 µM (NIH3T3, read-out: inhibition of CFTR Cl- currents): > 90%; reversibility of inhibition of CFTR Cl- currents on washing (prolonged washing): irreversible
CC1(C)Oc2ccc(C#N)cc2[C@@H](N2CCCC2=O)[C@@H]1O [lemakalim]	> 70		inhibited	more potent than diazoxide	effect on baseline currents (250 μM): no effect
Nc1cc(N2CCCCC2)nc(N)[n+]1OS(=O)(=O)[O-] [minoxidil sulfate]			inhibited	more potent than lemakalim	effect on baseline currents (10-500 μM): no effect; inhibition at 100 µM (NIH3T3, 100 μM, 3 min after adding, currents activated by cAMP agonists, read-out: inhibition of CFTR Cl- currents): > 70%
CCCCNC(=O)NS(=O)(=O)c1ccc(C)cc1 [tolbutamide]		> 90			voltage dependence of inhibition of CFTR Cl- currents (500 μM): little voltage dependence; effect on CFTR Cl- currents (500 μM, currents activated by cAMP agonists): inhibited; reversibility of inhibition of CFTR Cl- currents on washing (washes lasting >10 min): partially recovered
